Measured values reported in patent US20230129721A1, “STABILIZER FOR RADIOPHARMACEUTICALS AND RADIOPHARMACEUTICAL COMPOSITION COMPRISING THE SAME” (THE ASAN FOUNDATION, priority 2020, published 2023).

Columns and labels:
[1] = pH (paper) of [^18F]PI-2620 radiopharmaceutical composition over time at 40° C.; assay type: physicochemical
[2] = Radiochemical purity of [^18F]PI-2620 radiopharmaceutical composition over time at 40° C. by HPLC; assay type: physicochemical
Protocol: Fluoride ([^18F]) and 2 mg of a precursor were dissolved in dimethyl sulfoxide, and the reaction mixture was fluorinated using an SN2 reaction at a temperature of 100° C. or higher. Then, a protecting group was hydrolyzed with sulfuric acid, and the mixture was neutralized with sodium hydroxide, purified using high-performance liquid chromatography (HPLC) (purification conditions: Luna C18 250×10 mm, phosphate buffer:acetonitrile=70:30 (v/v), 5.0 mL/min, UV=254 nm), and then formulated (formulation composition: 100 mg of sodium ascorbate, 2 nM phosphate buffer, and 10% ethanol) to obtain the [^18F]PI-2620 compound having a radiochemical purity of 100% (FIG. 1).
[^18F]PI-2620 was formulated with ethanol, ascorbic acid, and a phosphate buffer, and the radiochemical purity of the radiopharmaceutical composition was then measured at the elapsed times of 0 hour, 2 hours, 4 hours, and 6 hours at a temperature of 40° C. using HPLC (analysis conditions: Luna C18 250×4.6 mm, phosphate buffer:acetonitrile=60:40 (v/v), 1.0 mL/min, UV=254 nm).
[^18F]PI-2620 was obtained as a compound having a radiochemical purity of 100% in the same manner as in Example 1. To further confirm the stability of the compound, 2 equivalents of sodium ascorbate used in Example 1 was added during a formulation process (formulation composition: 200 mg of sodium ascorbate, a 2 nM phosphate buffer, and 10% ethanol), and the radiochemical purity of the radiopharmaceutical composition was then measured in the same manner as in Example 1 at the elapsed times of 0 hour, 2 hours, 4 hours, and 6 hours at a temperature of 40° C. using high-performance liquid chromatography (HPLC)
[^18F]PI-2620 was obtained as a compound having a radiochemical purity of 100% in the same manner as in Example 1. To check the causes of a decrease in radiochemical purity, the radiochemical purity of the radiopharmaceutical composition was then measured in the same manner as in Example 1 at the elapsed times of 0 hour, 2 hours, 4 hours, and 6 hours at a temperature of 40° C. under three formulation conditions (Condition 1: ethanol and water for injection (formulation composition: 10% ethanol); Condition 2: ethanol and a phosphate buffer (formulation composition: a 2 nM phosphate buffer and 10% ethanol); Condition 3: ethanol and a 2×phosphate buffer (formulation composition: a 4 nM phosphate buffer and 10% ethanol)) using high-performance liquid chromatography (HPLC).
[^18F]PI-2620 was obtained as a compound having a radiochemical purity of 98% or more in the same manner as in Example 1. As a novel stabilizing agent, vitamin B1 (VB1), vitamin B6 (VB6), vitamin B8 (VB8), vitamin B10 (VB10), or vitamin B12 (VB12) (formulation composition: 10% ethanol and a 50 mg/mL vitamin concentration) was added to ethanol and water for injection, and the radiochemical purity of the radiopharmaceutical composition was measured in the same manner as in Example 1 at the elapsed times of 0 hour, 2 hours, 4 hours, and 6 hours at a temperature of 40° C. using high-performance liquid chromatography (HPLC). A preparation including no vitamin B was used as the control.
[^18F]PI-2620 was obtained as a compound having a radiochemical purity of 98% or more in the same manner as in Example 1, and formulated with ethanol and a phosphate buffer (formulation composition: a 2 nM phosphate buffer and 10% ethanol). As a novel stabilizing agent, vitamin B1 (VB1), vitamin B6 (VB6), vitamin B8 (VB8), or vitamin B10 (VB10) was added at a concentration of 50 mg/mL, and the radiochemical purity of the radiopharmaceutical composition was measured in the same manner as in Example 1 at the elapsed times of 0 hour, 2 hours, 4 hours, and 6 hours at a temperature of 40° C. using high-performance liquid chromatography (HPLC). A preparation in which sodium ascorbate was added to the same concentrations of ethanol and phosphate buffer was used as the control. […]

## Nc1ccc(C(=O)O)cc1 [VB10, 4-aminobenzoic acid]
[1]; 2 nM phosphate buffer and 10% ethanol, vitamin 50 mg/mL (control: sodium ascorbate), 0 hr
  PH (paper): 6
[1]; 2 nM phosphate buffer and 10% ethanol, vitamin 50 mg/mL (control: sodium ascorbate), 2 hr
  PH (paper): 6
[1]; 2 nM phosphate buffer and 10% ethanol, vitamin 50 mg/mL (control: sodium ascorbate), 4 hr
  PH (paper): 6
[1]; 2 nM phosphate buffer and 10% ethanol, vitamin 50 mg/mL (control: sodium ascorbate), 6 hr
  PH (paper): 6
[1]; 10% ethanol, water for injection, 50 mg/mL vitamin, 0 hr
  PH (paper): 7
[1]; 10% ethanol, water for injection, 50 mg/mL vitamin, 2 hr
  PH (paper): 6
[1]; 10% ethanol, water for injection, 50 mg/mL vitamin, 4 hr
  PH (paper): 7
[1]; 10% ethanol, water for injection, 50 mg/mL vitamin, 6 hr
  PH (paper): 7
[2]; [^18F]PI-2620, 2 nM phosphate buffer and 10% ethanol, vitamin 50 mg/mL (control: sodium ascorbate), 0 hr
  Purity (radiochemical purity): 98.01%
[2]; [^18F]PI-2620, 2 nM phosphate buffer and 10% ethanol, vitamin 50 mg/mL (control: sodium ascorbate), 2 hr
  Purity (radiochemical purity): 94.44%
[2]; [^18F]PI-2620, 2 nM phosphate buffer and 10% ethanol, vitamin 50 mg/mL (control: sodium ascorbate), 4 hr
  Purity (radiochemical purity): 91.25%
[2]; [^18F]PI-2620, 2 nM phosphate buffer and 10% ethanol, vitamin 50 mg/mL (control: sodium ascorbate), 6 hr
  Purity (radiochemical purity): 86.09%
[2]; [^18F]PI-2620, ethanol and water for injection (10% ethanol), 50 mg/mL vitamin, no phosphate buffer, 0 hr
  Purity (radiochemical purity): 99.15%
[2]; [^18F]PI-2620, ethanol and water for injection (10% ethanol), 50 mg/mL vitamin, no phosphate buffer, 2 hr
  Purity (radiochemical purity): 98.71%
[2]; [^18F]PI-2620, ethanol and water for injection (10% ethanol), 50 mg/mL vitamin, no phosphate buffer, 4 hr
  Purity (radiochemical purity): 98.83%
[2]; [^18F]PI-2620, ethanol and water for injection (10% ethanol), 50 mg/mL vitamin, no phosphate buffer, 6 hr
  Purity (radiochemical purity): 98.73%
